Patent US9382197B2, “Substituted hydroxamic acids and uses thereof” (Millennium Pharmaceuticals, Inc., priority 2010, dated 2016)

Each compound was assayed against T1, purified human HDAC6 (Homo sapiens, UniProt Q9UBN7) (assay: HDAC6 Enzyme Assay). Conditions: bin: greater than 500 nM and less than 1 μM (lower bound in nM, upper bound in μM).
T1 construct: purchased BPS Bioscience 5006
T1 sequence (Q9UBN7 1-1215): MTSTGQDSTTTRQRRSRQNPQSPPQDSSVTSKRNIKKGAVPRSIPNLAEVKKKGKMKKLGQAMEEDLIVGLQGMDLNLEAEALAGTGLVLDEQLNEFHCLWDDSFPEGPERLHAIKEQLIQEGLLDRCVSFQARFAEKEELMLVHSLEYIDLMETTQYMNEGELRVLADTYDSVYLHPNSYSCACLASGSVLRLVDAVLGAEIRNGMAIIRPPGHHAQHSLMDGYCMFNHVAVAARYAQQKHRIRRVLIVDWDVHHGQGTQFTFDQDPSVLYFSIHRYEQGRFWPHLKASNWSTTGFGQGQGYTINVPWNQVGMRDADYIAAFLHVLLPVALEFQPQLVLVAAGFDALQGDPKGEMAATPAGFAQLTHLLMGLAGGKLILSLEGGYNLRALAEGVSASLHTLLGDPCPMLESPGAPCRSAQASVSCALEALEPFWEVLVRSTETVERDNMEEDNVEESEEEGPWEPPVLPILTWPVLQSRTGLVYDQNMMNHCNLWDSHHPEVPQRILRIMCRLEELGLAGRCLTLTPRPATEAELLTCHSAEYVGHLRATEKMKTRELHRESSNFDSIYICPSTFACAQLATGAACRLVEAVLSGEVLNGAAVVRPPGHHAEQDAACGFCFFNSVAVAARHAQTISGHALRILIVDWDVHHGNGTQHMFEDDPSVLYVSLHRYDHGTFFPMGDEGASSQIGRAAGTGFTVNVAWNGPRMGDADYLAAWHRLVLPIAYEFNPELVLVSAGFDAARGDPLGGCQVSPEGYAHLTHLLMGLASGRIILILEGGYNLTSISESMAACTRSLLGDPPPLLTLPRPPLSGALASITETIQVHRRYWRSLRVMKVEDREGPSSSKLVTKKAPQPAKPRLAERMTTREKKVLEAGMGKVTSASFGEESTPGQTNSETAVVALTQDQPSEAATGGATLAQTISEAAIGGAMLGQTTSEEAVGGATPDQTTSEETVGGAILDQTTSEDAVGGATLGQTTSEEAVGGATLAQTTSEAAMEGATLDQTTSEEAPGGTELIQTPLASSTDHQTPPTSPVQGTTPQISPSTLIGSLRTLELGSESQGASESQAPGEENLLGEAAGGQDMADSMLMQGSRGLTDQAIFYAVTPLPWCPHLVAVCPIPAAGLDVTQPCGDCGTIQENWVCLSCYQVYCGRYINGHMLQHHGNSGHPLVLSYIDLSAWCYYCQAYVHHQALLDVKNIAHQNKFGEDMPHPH
Format: biochemical
Summary of the method: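 Deacetylated product quantified after trypsin digestion as released AMC (340/460 nm), following a 1 h, 30 °C reaction of human HDAC6 with Ac-RGK(Ac)-AMC peptide, quenched by trichostatin A. IC50 derived from DMSO-normalized curves.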

| IC50 [nM] | SMILES |
| --- | --- |
| 500 to 1000 | CC(NC(=O)c1cscn1)c1cccc(C(=O)NO)c1 (centres unmarked) [Compound I-179, N-(1-{3-[(hydroxyamino)carbonyl]phenyl}ethyl)-1,3-thiazole-4-carboxamide] |

Same assay, conditions: bin: greater than 1 μM

| IC50 [nM] | SMILES |
| --- | --- |
| > 1000 | Cn1c(C(=O)NC(c2ccc(C(=O)NO)cc2)C(C)(C)C)cc2oc(-c3ccc(C(F)(F)F)cc3)cc21 (centres unmarked) [Compound I-248, N-(1-{4-[(hydroxyamino)carbonyl]phenyl}-2,2-dimethylpropyl)-4-methyl-2-[4-(trifluoromethyl)phenyl]-4H-furo[3,2-b]pyrrole-5-carboxamide] |
| > 1000 | CC(NC(=O)c1csc2ccccc12)c1ccc(C(=O)NO)cc1 (centres unmarked) [Compound I-244, N-(1-{4-[(hydroxyamino)carbonyl]phenyl}ethyl)-1-benzothiophene-3-carboxamide] |
| > 1000 | Cn1c(C(=O)N[C@@H](c2ccc(C(=O)NO)cc2)C(F)(F)F)cc2oc(-c3ccccc3)cc21 [Compound I-231, 4-methyl-2-phenyl-N-((1S)-2,2,2-trifluoro-1-{4-[(hydroxyamino)carbonyl]phenyl}ethyl)-4H-furo[3,2-b]pyrrole-5-carboxamide] |
| > 1000 | CC(C)[C@H](NC(=O)C12CC3CC(CC(C3)C1)C2)c1ccc(C(=O)NO)cc1 [Compound I-157, N-((1S)-1-{4-[(hydroxyamino)carbonyl]phenyl}-2-methylpropyl)adamantane-1-carboxamide] |
| > 1000 | CC(NC(=O)C1CCCCC1)c1cccc(C(=O)NO)c1 (centres unmarked) [Compound I-149, 3-{1-[(cyclohexylcarbonyl)amino]ethyl}-N-hydroxybenzamide] |

Same assay, conditions: purified human HDAC6, substrate Ac-Arg-Gly-Lys(Ac)-AMC, 1 hour at 30° C.; reported as bins

| SMILES | IC50 [nM] |
| --- | --- |
| Cc1cc(C)c(C(=O)NC(c2ccc(C(=O)NO)cc2)C(C)(C)C)[nH]1 (centres unmarked) [Compound I-262, N-(1-{4-[(hydroxyamino)carbonyl]phenyl}-2,2-dimethylpropyl)-3,5-dimethyl-1H-pyrrole-2-carboxamide] | 100 to 500 |
| C[C@@H](NC(=O)C1(C)CCNCC1)c1ccc(C(=O)NO)cc1 [Compound I-487, N-((1R)-1-{4-[(hydroxyamino)carbonyl]phenyl}ethyl)-4-methylpiperidine-4-carboxamide] | 100 to 500 |
| CC(NS(=O)(=O)Cc1ccccc1)c1ccc(C(=O)NO)cc1 (centres unmarked) [Compound I-338, 4-{1-[(benzylsulfonyl)amino]ethyl}-N-hydroxybenzamide] | 100 to 500 |
| Cc1ccccc1S(=O)(=O)NC(C)c1ccc(C(=O)NO)cc1 (centres unmarked) [Compound I-232, N-hydroxy-4-(1-{[(2-methylphenyl)sulfonyl]amino}ethyl)benzamide] | 100 to 500 |
| Cc1c(C(=O)N[C@H](C)c2cccc(C(=O)NO)c2)sc2ccccc12 [Compound I-113, N-((1R)-1-{3-[(hydroxyamino)carbonyl]phenyl}ethyl)-3-methyl-1-benzothiophene-2-carboxamide] | 100 to 500 |
| Cn1ccc(C(=O)NC(c2ccc(C(=O)NO)cc2)C(C)(C)C)n1 (centres unmarked) [Compound I-66, N-(1-{4-[(hydroxyamino)carbonyl]phenyl}-2,2-dimethylpropyl)-1-methyl-1H-pyrazole-3-carboxamide] | 100 to 500 |
| CC(C)[C@@H](NC(=O)Nc1ccccc1-c1ccccc1)c1ccc(C(=O)NO)cc1 [Compound I-515, 4-((1R)-1-{[(biphenyl-2-ylamino)carbonyl]amino}-2-methylpropyl)-N-hydroxybenzamide] | < 100 |
| CC(C)[C@@H](NC(=O)C12CC3CC(CC(C3)C1)C2)c1ccc(C(=O)NO)cc1 [Compound I-328, N-((1R)-1-{4-[(hydroxyamino)carbonyl]phenyl}-2-methylpropyl)adamantane-1-carboxamide] | < 100 |

Now from value to compound:

| IC50 [nM] | SMILES |
| --- | --- |
| < 100 | CC(C)[C@@H](NC(=O)c1cc2ccccc2s1)c1ccc(C(=O)NO)cc1 [Compound I-214, N-((1R)-1-{4-[(hydroxyamino)carbonyl]phenyl}-2-methylpropyl)-1-benzothiophene-2-carboxamide] |
| < 100 | CCC[C@@H](NC(=O)c1cc2ccccc2o1)c1ccc(C(=O)NO)cc1 [Compound I-79, N-((1R)-1-{4-[(hydroxyamino)carbonyl]phenyl}butyl)-1-benzofuran-2-carboxamide] |
| < 100 | C[C@@H](NC(=O)c1cc2ccccc2o1)c1ccc(C(=O)NO)cc1 [Compound I-317, N-((1R)-1-{4-[(hydroxyamino)carbonyl]phenyl}ethyl)-1-benzofuran-2-carboxamide] |
| < 100 | CC(NC(=O)c1cccc2c1OCC2)c1ccc(C(=O)NO)cc1 (centres unmarked) [Compound I-134, N-(1-{4-[(hydroxyamino)carbonyl]phenyl}ethyl)-2,3-dihydro-1-benzofuran-7-carboxamide] |
| < 100 | Cc1ccc2[nH]c(C(=O)NC(c3ccc(C(=O)NO)cc3)C(C)(C)C)c(C)c2c1 (centres unmarked) [Compound I-329, N-(1-{4-[(hydroxyamino)carbonyl]phenyl}-2,2-dimethylpropyl)-3,5-dimethyl-1H-indole-2-carboxamide] |
| < 100 | COc1cccc2cc(C(=O)NC(c3ccc(C(=O)NO)cc3)C(C)C)oc12 (centres unmarked) [Compound I-306, N-(1-{4-[(hydroxyamino)carbonyl]phenyl}-2-methylpropyl)-7-methoxy-1-benzofuran-2-carboxamide] |
| < 100 | O=C(NO)c1ccc([C@H](NC(=O)c2cc3ccccc3s2)C2CC2)cc1 [Compound I-229, N-((R)-cyclopropyl{4-[(hydroxyamino)carbonyl]phenyl}methyl)-1-benzothiophene-2-carboxamide] |
| < 100 | CC(NC(=O)CC1Cc2ccccc2C1)c1ccc(C(=O)NO)cc1 (centres unmarked) [Compound I-357, 4-{1-[(2,3-dihydro-1H-inden-2-ylacetyl)amino]ethyl}-N-hydroxybenzamide] |
| < 100 | C[C@@H](NC(=O)c1ccc(-c2ccccc2)cc1)c1ccc(C(=O)NO)cc1 [Compound I-92, N-((1R)-1-{4-[(hydroxyamino)carbonyl]phenyl}ethyl)biphenyl-4-carboxamide] |
| < 100 | C[C@@H](NC(=O)C(C)(C)C)c1ccc(C(=O)NO)cc1 [Compound I-73, 4-{(1R)-1-[(2,2-dimethylpropanoyl)amino]ethyl}-N-hydroxybenzamide] |
| < 100 | Cc1ccc2[nH]c(C(=O)NC(c3ccc(C(=O)NO)cc3)C(C)C)cc2c1 (centres unmarked) [Compound I-69, N-(1-{4-[(hydroxyamino)carbonyl]phenyl}-2-methylpropyl)-5-methyl-1H-indole-2-carboxamide] |
| < 100 | CC(C)[C@@H](NC(=O)Nc1cccc2ccccc12)c1ccc(C(=O)NO)cc1 [Compound I-524, N-hydroxy-4-((1R)-2-methyl-1-{[(1-naphthylamino)carbonyl]amino}propyl)benzamide] |
| < 100 | CC(C)(C)C(NC(=O)c1c[nH]c2ccccc12)c1ccc(C(=O)NO)cc1 (centres unmarked) [Compound I-319, N-(1-{4-[(hydroxyamino)carbonyl]phenyl}-2,2-dimethylpropyl)-1H-indole-3-carboxamide] |
| < 100 | Cc1ccc2[nH]c(C(=O)NC(c3ccc(C(=O)NO)cc3)C(C)(C)C)cc2c1 (centres unmarked) [Compound I-129, N-(1-{4-[(hydroxyamino)carbonyl]phenyl}-2,2-dimethylpropyl)-5-methyl-1H-indole-2-carboxamide] |
| < 100 | O=C(NO)c1ccc([C@H](NC(=O)c2cc3ccccc3s2)c2ccccc2)cc1 [Compound I-99, N-[(R)-{4-[(hydroxyamino)carbonyl]phenyl}(phenyl)methyl]-1-benzothiophene-2-carboxamide] |
